One data set relates to HeLa. The data set is described as follows: Cell detachment in HeLa cells. It counts as cell-based. Particulars: HeLa cell line.
A further data set concerns Huh7. Briefly: Cell detachment in Huh7 cells. It counts as cell-based. The conditions noted are these: Huh7 cell line.
In data set [1] the test system is herpes simplex virus (HSV). The conditions noted are these: for IC50: 42 h; for antiviral activity: HSV, result in words.
For data set [2], the system named is lymphocytic choriomeningitis virus (LCMV). Particulars: for IC50: 1 h.
In a further data set the test system is MC57G fibroblast cells. The conditions noted are these: for cytotoxic effects: LIVE/DEAD staining, 2 days post-treatment.
The target in another data set is chymotrypsin (Bos taurus, UniProt P00766). Briefly: Chymotrypsin inhibition assay. It counts as biochemical. Particulars: for protease inhibitory activity: chymotrypsin, result in words.
Data set [3] concerns the target T1, human neutrophil elastase (Homo sapiens, UniProt P08246).
T1 sequence (P08246 30-267): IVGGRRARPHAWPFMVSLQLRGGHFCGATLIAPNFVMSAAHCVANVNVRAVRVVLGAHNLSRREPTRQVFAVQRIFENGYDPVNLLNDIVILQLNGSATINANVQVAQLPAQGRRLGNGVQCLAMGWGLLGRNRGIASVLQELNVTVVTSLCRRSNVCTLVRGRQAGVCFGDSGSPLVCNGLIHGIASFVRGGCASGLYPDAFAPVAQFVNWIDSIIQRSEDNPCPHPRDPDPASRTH
Briefly: Human neutrophil elastase inhibition assay. The format is biochemical. The conditions noted are these: for protease inhibitory activity: human neutrophil elastase, result in words.

Another data set deals with human cathepsin B (Homo sapiens, UniProt P07858). The data set is described as follows: Cathepsin B inhibition assay. The conditions noted are these: for protease inhibitory activity: cathepsin B, result in words. It counts as biochemical.
The next data set has as its system influenza A virus (IAV). The data set is described as follows: Antiviral assay against IAV. The format is cell-based, IAV strain A/WSN/1933 (H1N1). Particulars: result in words.

Numbered stars: 1 amine (or outer) side, 2 acyl side, 3 side chain; on linkers, the order of the positions; unused ones are H or OH. Bridge positions count the residues as written; N and C are the ends. Square brackets hold non-standard residues; d marks the D form. Ends that are not written are not given here. Peptide text beside a SMILES is read from it. ξ: configuration not given here. ξLeu(ψCOCO) = CC(C)CC(N[*:1])C(=O)C(=O)[*:2]; X1 = CSCCC(N[*:1])C(=O)C(=O)[*:2]

As to `CC[C@H](C)[C@H](N)C(=O)N[C@@H](CC(N)=O)C(=O)N[C@@H](C)C(=O)N[C@H](C(=O)NCC(=O)N[C@@H](CCC(N)=O)C(=O)N[C@@H](CCCNC(=N)N)C(=O)N[C@H](C(=O)N[C@@H](CC(=O)O)C(=O)N[C@@H](CO)C(=O)N[C@@H](CO)C(=O)N[C@H](C(=O)N[C@@H](Cc1ccccc1)C(=O)N[C@H](C(=O)N[C@@H](Cc1c[nH]cn1)C(=O)N[C@H]1CSSC[C@@H](C(=O)NCC(=O)N[C@H](C(=O)N[C@@H](C)C(=O)NC(CC(C)C)C(=O)C(=O)NCC(=O)N[C@@H](CO)C(=O)N[C@H](C(=O)N[C@H](C(=O)N[C@@H](CC(=O)O)C(=O)N2CCC[C@H]2C(=O)N[C@@H](Cc2c[nH]cn2)C(=O)N[C@@H](CCCNC(=N)N)C(=O)N[C@@H](Cc2ccccc2)C(=O)N[C@@H](CC(=O)O)C(=O)N[C@@H](CCSC)C(=O)N[C@@H](CC(C)C)C(=O)N2CCC[C@H]2C(=O)O)[C@@H](C)CC)C(C)C)C(C)C)NC(=O)[C@H](C(C)C)NC(=O)[C@H](Cc2ccccc2)NC(=O)[C@H](Cc2ccccc2)NC(=O)[C@H](CC(=O)O)NC1=O)[C@@H](C)O)C(C)C)[C@@H](C)CC)[C@@H](C)O` (stereo partly shown) [Compound 4, RasA*-Tyn] (H-INATGQRIDSSVFTHCDFFVCGVA[ξLeu(ψCOCO)]GSVIDPHRFDMLP-OH; disulfide 16-21; N-terminus assumed), the cell detachment result in the data set on HeLa and with Huh7 was “not detected” each time. The half-maximal inhibitory concentration (IC50) in data set [1] was 28.8 µM; in data set [2], 15.2 µM. Besides, in the data set on MC57G fibroblast cells, the cytotoxic effects result is recorded as “no significant cytotoxic effects”. Moreover, in the data set on MC57G fibroblast cells (low levels / slight detachment), the “concentration at which cell detachment from the assay plates was observed” value is listed as “above 50 µM”.
With `CC[C@H](C)[C@H](N)C(=O)N[C@@H](CC(N)=O)C(=O)N[C@@H](C)C(=O)N[C@H](C(=O)NCC(=O)N[C@@H](CCC(N)=O)C(=O)N[C@@H](CCCNC(=N)N)C(=O)N[C@H](C(=O)N[C@@H](CC(=O)O)C(=O)N[C@@H](CO)C(=O)N[C@@H](CO)C(=O)N[C@H](C(=O)N[C@@H](Cc1ccccc1)C(=O)N[C@H](C(=O)N[C@@H](Cc1c[nH]cn1)C(=O)N[C@H]1CSSC[C@@H](C(=O)NCC(=O)N[C@H](C(=O)N[C@@H](C)C(=O)N[C@@H](CC(C)C)C(=O)N[C@@H](Cc2ccc(O)cc2)C(=O)NCC(=O)N[C@@H](CO)C(=O)N[C@H](C(=O)N[C@H](C(=O)N[C@@H](CC(=O)O)C(=O)N2CCC[C@H]2C(=O)N[C@@H](Cc2c[nH]cn2)C(=O)N[C@@H](CCCNC(=N)N)C(=O)N[C@@H](Cc2ccccc2)C(=O)N[C@@H](CC(=O)O)C(=O)N[C@@H](CCSC)C(=O)N[C@@H](CC(C)C)C(=O)N2CCC[C@H]2C(=O)O)[C@@H](C)CC)C(C)C)C(C)C)NC(=O)[C@H](C(C)C)NC(=O)[C@H](Cc2ccccc2)NC(=O)[C@H](Cc2ccccc2)NC(=O)[C@H](CC(=O)O)NC1=O)[C@@H](C)O)C(C)C)[C@@H](C)CC)[C@@H](C)O` [Compound 6, RasA*] (H-INATGQRIDSSVFTHCDFFVCGVALYGSVIDPHRFDMLP-OH; disulfide 16-21; N-terminus assumed), the protease inhibitory activity result is “did not exhibit any protease inhibitory and antiviral activity” on chymotrypsin; “did not exhibit any protease inhibitory and antiviral activity” in [3]; “did not exhibit any protease inhibitory and antiviral activity” on human cathepsin B. Further, the antiviral activity result was “did not exhibit any protease inhibitory and antiviral activity” with influenza A virus (IAV); “did not exhibit any protease inhibitory and antiviral activity” in [1]; “did not exhibit any protease inhibitory and antiviral activity” in data set [2]. Besides, the half-maximal inhibitory concentration (IC50) in [1] and in data set [2] was more than 200 µM in each case.
“GTVTGSILTPIDYGCFNPFLCSVAMYGGVIDPIRFPNAWREL (disulfide 15-21) [Compound 5, G-RcsA*]”: the protease inhibitory activity entry was “did not exhibit any protease inhibitory and antiviral activity” at chymotrypsin; “did not exhibit any protease inhibitory and antiviral activity” in [3]; “did not exhibit any protease inhibitory and antiviral activity” on human cathepsin B. For the same compound, the antiviral activity result was “did not exhibit any protease inhibitory and antiviral activity” in the data set with influenza A virus (IAV); “did not exhibit any protease inhibitory and antiviral activity” in [1]; “did not exhibit any protease inhibitory and antiviral activity” in data set [2]. For the same compound, the IC50 in data set [1] and in data set [2] was more than 200 µM each time.
On to “GTVTGSILTPIDYGCFNPFLCSVA[X1]GGVIDPIRFPNAWREL (disulfide 15-21) [Compound 3, G-RcsA*-Tyn]”, for which the concentration for half-maximal inhibition (IC50) against chymotrypsin stood at 9.2 µM; in data set [3] it was 5.76 µM; against human cathepsin B it was 3.74 µM; in data set [1], 69.7 µM; in data set [2], 37 µM. For the same compound, in the data set on MC57G fibroblast cells, the cytotoxic effects result is “no significant cytotoxic effects”.

The values above are taken from article PMC11626197 (Proceedings of the National Academy of Sciences of the …, 2024).
